Data from ChEMBL document CHEMBL1201862, “PubChem BioAssay data set” (2004).
Activity calls are given as the source filed them.

Columns and labels:
[1] = Jurkat T cell cytotoxicity, dose response, cytotoxicity control for P. falciparum gametocyte viability project, luminescence (AID 1117277); assay type: functional, cell-based;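 also: potency reflects loss of cellular ATP meaning fewer viable cells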
[2] = molecular target: Voltage-dependent T-type calcium channel subunit alpha-1H (Homo sapiens, UniProt O95180); assay type: functional;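 also: channel activity triggered by adding a high calcium stimulation buffer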
Chain of Voltage-dependent T-type calcium channel subunit alpha-1H (O95180 whole entry): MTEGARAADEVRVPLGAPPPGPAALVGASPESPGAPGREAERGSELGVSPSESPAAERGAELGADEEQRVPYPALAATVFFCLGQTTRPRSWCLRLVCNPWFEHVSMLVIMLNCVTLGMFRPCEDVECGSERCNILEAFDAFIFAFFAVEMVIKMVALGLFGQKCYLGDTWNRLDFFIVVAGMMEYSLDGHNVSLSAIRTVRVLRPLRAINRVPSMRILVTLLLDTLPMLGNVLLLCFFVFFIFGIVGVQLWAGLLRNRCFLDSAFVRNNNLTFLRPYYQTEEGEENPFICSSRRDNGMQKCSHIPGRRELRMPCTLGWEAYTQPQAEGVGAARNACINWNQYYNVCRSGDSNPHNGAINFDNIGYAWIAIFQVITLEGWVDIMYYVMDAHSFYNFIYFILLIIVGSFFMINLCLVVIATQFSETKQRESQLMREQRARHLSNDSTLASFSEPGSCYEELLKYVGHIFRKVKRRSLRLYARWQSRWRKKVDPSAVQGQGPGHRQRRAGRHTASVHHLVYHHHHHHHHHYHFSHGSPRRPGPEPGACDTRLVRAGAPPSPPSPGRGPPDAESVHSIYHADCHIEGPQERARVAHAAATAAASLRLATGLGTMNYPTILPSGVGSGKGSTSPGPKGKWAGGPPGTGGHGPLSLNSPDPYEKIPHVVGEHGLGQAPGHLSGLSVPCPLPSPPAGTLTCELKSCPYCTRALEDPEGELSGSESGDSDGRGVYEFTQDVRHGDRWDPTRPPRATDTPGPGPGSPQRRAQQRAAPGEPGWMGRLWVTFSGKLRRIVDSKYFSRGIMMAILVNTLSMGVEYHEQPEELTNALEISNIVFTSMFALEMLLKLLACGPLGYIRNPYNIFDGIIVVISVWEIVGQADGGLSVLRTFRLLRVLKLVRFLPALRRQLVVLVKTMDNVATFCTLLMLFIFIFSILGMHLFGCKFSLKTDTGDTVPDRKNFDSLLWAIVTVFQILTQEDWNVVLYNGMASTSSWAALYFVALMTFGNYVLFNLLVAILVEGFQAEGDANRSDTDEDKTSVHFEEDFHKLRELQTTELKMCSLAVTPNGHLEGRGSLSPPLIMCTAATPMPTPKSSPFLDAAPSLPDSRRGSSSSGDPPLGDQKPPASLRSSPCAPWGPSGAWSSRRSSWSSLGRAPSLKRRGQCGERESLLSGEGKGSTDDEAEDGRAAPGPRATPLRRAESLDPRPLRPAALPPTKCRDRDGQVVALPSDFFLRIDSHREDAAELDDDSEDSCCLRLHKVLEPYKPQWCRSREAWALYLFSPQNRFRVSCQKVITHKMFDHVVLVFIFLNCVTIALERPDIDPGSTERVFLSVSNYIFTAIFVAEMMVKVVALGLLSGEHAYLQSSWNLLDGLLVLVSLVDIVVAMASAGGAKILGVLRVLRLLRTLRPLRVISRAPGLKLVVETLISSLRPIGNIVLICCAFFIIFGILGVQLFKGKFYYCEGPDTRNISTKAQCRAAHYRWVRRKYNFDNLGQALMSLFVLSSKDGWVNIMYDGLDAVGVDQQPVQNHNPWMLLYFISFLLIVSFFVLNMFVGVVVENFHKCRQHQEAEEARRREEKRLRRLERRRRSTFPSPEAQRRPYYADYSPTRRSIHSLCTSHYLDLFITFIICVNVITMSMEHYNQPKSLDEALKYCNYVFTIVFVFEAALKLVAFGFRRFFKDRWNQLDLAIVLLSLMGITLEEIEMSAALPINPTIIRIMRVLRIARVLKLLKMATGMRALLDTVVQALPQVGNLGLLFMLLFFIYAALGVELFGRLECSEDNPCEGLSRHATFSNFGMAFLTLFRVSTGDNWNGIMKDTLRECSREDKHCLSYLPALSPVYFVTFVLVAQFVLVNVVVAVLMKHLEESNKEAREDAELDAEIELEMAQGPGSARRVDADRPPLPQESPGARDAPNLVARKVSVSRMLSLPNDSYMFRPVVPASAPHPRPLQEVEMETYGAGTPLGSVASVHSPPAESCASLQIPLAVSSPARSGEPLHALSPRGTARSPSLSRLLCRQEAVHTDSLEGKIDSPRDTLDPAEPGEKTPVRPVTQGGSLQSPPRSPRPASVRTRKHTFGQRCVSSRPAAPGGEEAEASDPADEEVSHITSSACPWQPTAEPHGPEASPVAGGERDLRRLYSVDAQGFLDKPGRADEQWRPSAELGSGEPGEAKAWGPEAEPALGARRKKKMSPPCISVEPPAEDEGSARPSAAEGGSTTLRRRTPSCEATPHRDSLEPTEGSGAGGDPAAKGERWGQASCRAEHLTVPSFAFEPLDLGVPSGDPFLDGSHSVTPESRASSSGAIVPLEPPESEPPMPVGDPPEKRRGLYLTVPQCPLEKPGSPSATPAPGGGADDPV

[3] = P. falciparum late gametocyte killing, dose response, luminescence (AID 1117278); assay type: functional, cell-based;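 also: gametocytes exposed to compound for 24 hours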
[4] = cells; assay type: functional, cell-based
[5] = molecular target: T1, Trace amine-associated receptor 1 (Homo sapiens, UniProt Q96RJ0); assay: Fluorescence-based cell-based high throughput dose response assay to identify agonists of the human trace amine associated receptor 1 (TAAR1).; assay type: functional
T1 sequence (Q96RJ0 whole entry): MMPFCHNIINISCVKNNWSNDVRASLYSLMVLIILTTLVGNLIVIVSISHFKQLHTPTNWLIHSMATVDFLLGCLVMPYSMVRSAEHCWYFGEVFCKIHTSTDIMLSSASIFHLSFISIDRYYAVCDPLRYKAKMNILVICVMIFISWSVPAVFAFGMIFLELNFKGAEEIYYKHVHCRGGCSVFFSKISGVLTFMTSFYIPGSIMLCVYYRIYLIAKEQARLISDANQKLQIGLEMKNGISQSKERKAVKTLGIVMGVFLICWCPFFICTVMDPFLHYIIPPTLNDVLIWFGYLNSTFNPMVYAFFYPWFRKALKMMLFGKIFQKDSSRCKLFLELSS

[6] = cells; assay type: functional, cell-based; remark: listed apart in the source
[7] = molecular target: T1, Trace amine-associated receptor 1; assay: Counterscreen for agonists of the human trace amine associated receptor 1 (hTAAR1): Fluorescence-based cell-based high throughput dose response assay to identify hTAAR1 agonist that also desensitize TAAR1 receptor response.; assay type: functional
[8] = Dose-response inhibition of insulin secretion in a rat insulinoma line at 5 mM glucose (AID 1117331); assay type: functional, cell-based; conditions: INS-1E
[9] = cells; assay type: functional, cell-based; conditions: INS-1E
[10] = HeLa 2N DNA content increase, dose response, cell-based, IC50 (AID 1117349); assay type: functional
[11] = HeLa 4N DNA content increase, dose response, cell-based, IC50 (AID 1117351); assay type: functional
[12] = T. cruzi intracellular amastigote growth inhibition, dose response, imaging, CA-I/72 strain, bovine embryo skeletal muscle, dry powder (AID 651885); assay type: functional, cell-based
[13] = system: H4; assay: Luminescence Cell-Based Dose Response HTS to Identify Activators of 5'UTR Stem-Loop Driven Prion Protein mRNA Translation in H4 Neuroglioblastoma Cells. [Related pubchem assays: 1829 (Project Summary), 1814 (Primary HTS)]; assay type: functional; conditions: Homo sapiens
[14] = Luminescence Cell-Based Dose Response HTS to Identify Activators of Luciferase Translation or Activity in H4 […] Cells. [Related pubchem assays: 1829 (Project Summary), 1814 (Primary HTS)]; assay type: functional
[15] = molecular target: T2, Polyadenylate-binding protein 1 (Homo sapiens, UniProt P11940); assay: PABP1 MLLE–PAM2 interaction inhibitors, dose response, miRNA deadenylation inhibitor project, biochemical, fluorescence polarization, Cy5-PAM2 peptide, secondary (AID 602260); assay type: functional; conditions: read-out: IC50_Mean
T2 sequence (P11940 whole entry): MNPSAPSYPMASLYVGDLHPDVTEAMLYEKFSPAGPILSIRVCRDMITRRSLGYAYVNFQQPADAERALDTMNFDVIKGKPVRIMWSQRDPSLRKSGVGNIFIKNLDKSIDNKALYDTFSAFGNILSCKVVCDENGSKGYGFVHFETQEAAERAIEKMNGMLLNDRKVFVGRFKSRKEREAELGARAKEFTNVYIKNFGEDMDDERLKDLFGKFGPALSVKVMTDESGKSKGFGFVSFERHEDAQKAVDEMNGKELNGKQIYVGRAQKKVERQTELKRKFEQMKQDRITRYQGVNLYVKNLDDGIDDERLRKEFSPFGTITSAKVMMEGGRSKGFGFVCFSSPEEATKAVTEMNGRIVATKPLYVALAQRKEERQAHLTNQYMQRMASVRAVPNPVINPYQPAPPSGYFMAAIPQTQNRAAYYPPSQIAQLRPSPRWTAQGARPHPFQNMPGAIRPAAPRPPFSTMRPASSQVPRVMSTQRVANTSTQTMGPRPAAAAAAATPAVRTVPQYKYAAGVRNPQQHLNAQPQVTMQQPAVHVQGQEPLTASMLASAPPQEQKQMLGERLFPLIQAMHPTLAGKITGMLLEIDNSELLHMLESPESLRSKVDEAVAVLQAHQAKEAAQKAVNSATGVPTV

[16] = cells
[17] = molecular target: T2, Polyadenylate-binding protein 1; assay: PABP1 MLLE–PAM2 binding inhibitor potency, dose response, biochemical, fluorescence polarization, FITC-PAM2 peptide (AID 602259); assay type: functional; conditions: read-out: IC50_Mean
[18] = Luminescence Cell-Based Dose Response to Identify Activators of Luciferase Translation or Activity in H4-C Neuroglioblastoma Cells. [Related pubchem assays: 1829 (Project Summary), 1814 (Primary HTS)]; assay type: functional
[19] = molecular target: Oxysterols receptor LXR-beta (Homo sapiens, UniProt P55055); assay type: functional, cell-based;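 also: Cell-based luminescence dose-response assay of agonist activity at LXR, run as a confirmatory counterscreen to a daf-12 agonist screen; HEK293 cells with Gal4-LXR fusion and GAL4-driven luciferase reporter; agonist potency from rising luciferase signal of a Gal4-LXR reporter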
Chain of Oxysterols receptor LXR-beta (P55055 whole entry, the tested form may be a part): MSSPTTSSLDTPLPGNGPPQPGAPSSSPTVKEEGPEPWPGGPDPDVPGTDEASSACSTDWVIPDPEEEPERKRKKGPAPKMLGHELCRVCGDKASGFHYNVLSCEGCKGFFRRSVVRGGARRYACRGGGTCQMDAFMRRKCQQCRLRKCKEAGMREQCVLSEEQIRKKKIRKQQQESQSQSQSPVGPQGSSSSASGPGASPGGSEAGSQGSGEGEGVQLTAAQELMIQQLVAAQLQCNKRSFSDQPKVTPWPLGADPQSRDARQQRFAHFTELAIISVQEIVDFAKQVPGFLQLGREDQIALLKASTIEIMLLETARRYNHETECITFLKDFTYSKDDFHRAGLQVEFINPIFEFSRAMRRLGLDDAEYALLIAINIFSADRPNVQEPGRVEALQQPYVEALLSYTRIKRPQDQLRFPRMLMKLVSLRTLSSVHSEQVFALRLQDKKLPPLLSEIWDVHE

[20] = Luminescence Cell-Based Dose Response to Identify Activators of 5'UTR Stem-Loop Driven Prion Protein mRNA Translation in H4-C Neuroglioblastoma Cells. [Related pubchem assays: 1829 (Project Summary), 1814 (Primary HTS)]; assay type: functional
[21] = Luminescence Cell-Based Dose Confirmation to Identify Activators of 5'UTR Stem-Loop Driven Alpha-Synuclein mRNA Translation in H4 Neuroglioblastoma Cells. [Related pubchem assays: 1829 (Project Summary), 1814 (Primary HTS)]; assay type: functional
[22] = HEK293T cytotoxicity, dose response, cytotoxicity control for miR-122 modulator project, cell-based, inhibitor set, cherry-pick, set 2 (AID 720697); assay type: functional
[23] = inhibitors of PGC1a acetylation in cells, dose response, cell-based, cherry-picked samples (AID 720514); assay type: functional;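 also: potency may reflect raised or lowered acetylation signal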
[24] = system: HeLa; assay: HeLa cell cytotoxicity, dose response, cytotoxicity control, ATP luminescence, cherry-pick samples (AID 687004); assay type: functional, cell-based; conditions: Homo sapiens
[25] = inhibitors of Vif binding to APOBEC3G peptide, primary screen, biochemical, TR-FRET, GST-Vif 1-94, biotin-A3G peptide, dose response retest (AID 1117319); assay type: functional;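 also: TR-FRET signal of purified GST-Vif binding a biotinylated A3G peptide; inhibitors lower the FRET signal by blocking Vif and A3G binding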
[26] = molecular target: Eukaryotic translation initiation factor 4E (Mus musculus, UniProt P63073); assay: eIF4E–eIF4G protein interaction inhibitors, dose response, biochemical, TR-FRET (AID 855); assay type: functional;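 also: potency for disrupting eIF4E binding to eIF4GI seen as loss of FRET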
Chain of Eukaryotic translation initiation factor 4E (P63073 whole entry): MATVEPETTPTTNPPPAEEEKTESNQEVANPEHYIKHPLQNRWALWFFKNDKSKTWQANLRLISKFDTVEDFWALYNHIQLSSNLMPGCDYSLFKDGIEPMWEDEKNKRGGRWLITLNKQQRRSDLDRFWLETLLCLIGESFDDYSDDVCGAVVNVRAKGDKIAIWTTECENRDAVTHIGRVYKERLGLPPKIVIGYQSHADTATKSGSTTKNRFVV

[27] = cells; remark: listed apart in the source
[28] = HEK293 cell cytotoxicity, dose response, cytotoxicity control, plate reader, cherry-picked samples (AID 743446); assay type: functional, cell-based
[29] = HEp-2 cell cytotoxicity, dose response, cytotoxicity control for RSV inhibitor project, HTS (AID 2410); assay type: functional; conditions: human respiratory syncytial virus
[30] = A549 cell cytotoxicity, dose response, cytotoxicity control, plate reader, cherry-pick, antagonist series (AID 743412); assay type: functional, cell-based
[31] = MC4R antagonists, dose response, counter-screen for LGR2 antagonist project, cell-based, plate reader, cherry pick (AID 743444); assay type: functional;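 also: transfected HEK 293 cells stimulated with alpha-MSH peptide; potency of inhibitors of the alpha-MSH evoked signal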
[32] = LGR2 antagonists, dose response, cell-based, HEK293, CRE-luciferase reporter, cherry pick, set 2 (AID 743343); assay type: functional;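 also: transfected cells were stimulated with diluted bursicon conditioned medium after compound addition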
[33] = molecular target: T3, CAAX prenyl protease 2 (Saccharomyces cerevisiae S288c, UniProt Q03530); assay type: biochemical
T3 sequence (Q03530 whole entry): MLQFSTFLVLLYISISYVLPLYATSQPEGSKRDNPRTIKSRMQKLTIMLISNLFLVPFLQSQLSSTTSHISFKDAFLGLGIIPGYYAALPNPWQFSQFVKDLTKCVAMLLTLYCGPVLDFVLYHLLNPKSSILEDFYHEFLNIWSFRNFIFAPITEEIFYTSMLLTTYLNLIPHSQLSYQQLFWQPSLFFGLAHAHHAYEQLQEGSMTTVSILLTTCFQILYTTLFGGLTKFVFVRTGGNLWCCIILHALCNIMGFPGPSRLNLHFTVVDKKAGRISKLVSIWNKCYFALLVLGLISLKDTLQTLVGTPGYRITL

[34] = THP-1 cell cytotoxicity, dose response, cytotoxicity control for Vif-APOBEC3G degradation inhibitor project, THP-1 cells (AID 1117359); assay type: functional; conditions: Human immunodeficiency virus 1, THP-1
[35] = HepG2 cell cytotoxicity, dose response, cytotoxicity control, plate reader, cherry-pick, antagonist series (AID 743416); assay type: functional, cell-based
[36] = C. albicans growth with fluconazole, confirmation, fluorescence, retest (AID 2467); assay type: functional, cell-based
[37] = NIH-3T3 fibroblast cytotoxicity, dose response, cytotoxicity control, cell-based, fluorescence, Alamar Blue, secondary assay (AID 2327); assay type: functional;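 also: NIH-3T3 mouse fibroblasts cultured with fluconazole at 8 µg/mL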
[38] = molecular target: T4, Heat shock factor protein 1 (Mus musculus, UniProt P38532); assay: HSF1 potentiators in luciferase reporter cells, confirmation, cell-based, NIH3T3, luminescence, dose retest (AID 435004); assay type: functional;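 also: stress induced by proteasome inhibitor MG132 added 30 min after compound; luciferase reporter driven by HSF1 response element in NIH3T3 cells; actives raise luminescence as potentiators of the MG132 stress response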
T4 sequence (P38532 whole entry): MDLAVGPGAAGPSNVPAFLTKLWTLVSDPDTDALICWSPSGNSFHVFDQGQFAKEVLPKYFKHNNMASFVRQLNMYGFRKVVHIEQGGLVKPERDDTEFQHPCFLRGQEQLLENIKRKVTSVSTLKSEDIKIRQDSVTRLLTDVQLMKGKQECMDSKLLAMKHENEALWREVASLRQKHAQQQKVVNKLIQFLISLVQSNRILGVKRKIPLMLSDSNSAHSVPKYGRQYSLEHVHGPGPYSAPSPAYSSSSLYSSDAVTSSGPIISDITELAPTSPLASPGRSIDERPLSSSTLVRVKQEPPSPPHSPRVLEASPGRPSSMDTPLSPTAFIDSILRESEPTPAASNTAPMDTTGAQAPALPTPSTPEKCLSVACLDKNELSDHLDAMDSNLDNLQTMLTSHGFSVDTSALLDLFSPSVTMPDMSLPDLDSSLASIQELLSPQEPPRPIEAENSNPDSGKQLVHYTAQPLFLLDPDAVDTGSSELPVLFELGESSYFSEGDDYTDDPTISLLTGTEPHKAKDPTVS

[39] = molecular target: 1-phosphatidylinositol 4,5-bisphosphate phosphodiesterase beta-3 (Homo sapiens, UniProt Q01970); assay: Fluorescence-based biochemical high throughput dose response assay to identify inhibitors of phospholipase C isozymes (PLC-B3).
[40] = molecular target: 1-phosphatidylinositol 4,5-bisphosphate phosphodiesterase gamma-1 (Homo sapiens, UniProt P19174); assay: Counterscreen for inhibitors of phospholipase C isozymes (PLC-B3): Fluorescence-based biochemical high throughput dose response assay to identify inhibitors of phospholipase C isozymes (PLC-gamma1).
Chain of 1-phosphatidylinositol 4,5-bisphosphate phosphodiesterase gamma-1 (P19174 whole entry): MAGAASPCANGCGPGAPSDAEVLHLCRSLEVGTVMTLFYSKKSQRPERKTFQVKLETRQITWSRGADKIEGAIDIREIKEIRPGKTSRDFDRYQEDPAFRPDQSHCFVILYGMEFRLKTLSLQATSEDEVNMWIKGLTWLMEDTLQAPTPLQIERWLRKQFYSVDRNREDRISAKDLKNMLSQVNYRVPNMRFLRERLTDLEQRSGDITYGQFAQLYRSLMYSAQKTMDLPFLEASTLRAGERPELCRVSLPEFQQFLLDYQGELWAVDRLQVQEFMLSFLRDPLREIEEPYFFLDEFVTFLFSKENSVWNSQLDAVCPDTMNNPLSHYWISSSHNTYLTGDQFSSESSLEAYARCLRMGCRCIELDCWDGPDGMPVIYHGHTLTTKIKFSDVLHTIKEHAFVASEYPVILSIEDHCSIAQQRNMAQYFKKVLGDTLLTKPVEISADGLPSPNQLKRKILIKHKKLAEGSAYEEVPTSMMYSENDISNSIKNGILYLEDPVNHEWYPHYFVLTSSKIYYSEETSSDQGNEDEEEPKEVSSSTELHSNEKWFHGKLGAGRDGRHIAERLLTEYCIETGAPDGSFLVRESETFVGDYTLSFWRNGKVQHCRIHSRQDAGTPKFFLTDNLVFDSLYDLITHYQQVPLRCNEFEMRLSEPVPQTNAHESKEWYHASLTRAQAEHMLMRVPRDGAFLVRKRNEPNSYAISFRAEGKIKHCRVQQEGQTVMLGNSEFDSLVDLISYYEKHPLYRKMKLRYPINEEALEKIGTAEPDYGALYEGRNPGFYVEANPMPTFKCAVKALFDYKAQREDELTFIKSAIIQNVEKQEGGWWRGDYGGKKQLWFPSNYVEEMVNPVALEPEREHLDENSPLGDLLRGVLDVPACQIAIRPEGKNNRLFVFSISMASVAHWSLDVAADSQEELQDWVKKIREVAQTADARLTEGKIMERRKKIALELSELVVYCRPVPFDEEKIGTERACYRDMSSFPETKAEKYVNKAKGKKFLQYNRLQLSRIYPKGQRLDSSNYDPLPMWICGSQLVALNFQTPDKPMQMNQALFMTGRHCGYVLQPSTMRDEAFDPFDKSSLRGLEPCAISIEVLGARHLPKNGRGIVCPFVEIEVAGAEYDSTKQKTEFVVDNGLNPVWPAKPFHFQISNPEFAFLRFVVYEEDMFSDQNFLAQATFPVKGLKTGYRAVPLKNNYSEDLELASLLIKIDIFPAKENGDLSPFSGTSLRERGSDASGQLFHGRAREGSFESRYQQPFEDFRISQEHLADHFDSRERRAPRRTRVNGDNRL

[41] = molecular target: E3 ubiquitin-protein ligase Mdm2 (Homo sapiens, UniProt Q00987); assay: enhancers of MDM2-luciferase reporter signal, concentration-effect titration, project on inhibitors of MDM2 ubiquitin ligase, cellular assay, luminescent readout, 384-well plate format (AID 1394); assay type: functional;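 also: MDM2 E3 inhibitors raise luminescence so EC50 is for signal enhancement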
[42] = molecular target: Melanocortin receptor 4 (Homo sapiens, UniProt P32245); assay type: functional, cell-based;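 also: Cell-based assay with luminescence read-out, confirmatory dose-response testing for agonist activity of biased ligands at MC4R; human U2OS cells with tagged receptor and beta-arrestin; potency of agonists that increase receptor coupling to beta-arrestin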
[43] = cytotoxicity toward NIH3T3 fibroblasts, dose response, counter-screen, cell-based, ATP luminescence, mouse fibroblasts (AID 2010); assay type: functional;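 also: cells exposed to compound for about 90 hours before reading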
[44] = inhibitors of intracellular T. cruzi replication, confirmation, NIH3T3 host cells, beta-gal luminescence (AID 2044); assay type: functional, cell-based;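 also: intracellular parasites grown in NIH/3T3 mouse fibroblasts as host cells; luminescent beta-galactosidase reporter signal from transgenic T. cruzi replicating inside host cells; inhibitors lower the luminescence signal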

COc1ccc(OC)c(NC(=O)C2CCN(Cc3cnn(-c4ccccc4)c3-n3cccc3)CC2)c1
IC50 [1]: > 83.3 µM (inactive)
EC50 [2]: 2.48 µM (active)
IC50 [3]: > 109 µM (inactive)

Cc1ccccc1C(=O)N[C@H](C(=O)N1CCC[C@H]1C(=O)NCCc1ccccc1Cl)C(C)C
EC50 [4]: > 29.9 µM (inactive)
EC50 [5]: 1.64 µM (active)
IC50 [6]: > 3.32 µM (active)
IC50 [7]: 3.15 µM (active)

CSc1ccc2c(c1)C(N1CCN(C)CC1)Cc1ccccc1S2 (stereo not given) [METITEPINE]
IC50 [8]: 2.94 µM (active)
IC50 [9]: > 33.3 µM (inactive)
IC50 [10]: > 10 µM (inactive)
IC50 [11]: > 10 µM (inactive)

CCc1ccccc1S(=O)(=O)Cc1ccc(C(=O)NCCc2ccccc2)o1
EC50 [4]: > 29.9 µM (inactive)
EC50 [5]: 4.46 µM (active)
IC50 [6]: 20 µM (inactive)
IC50 [7]: 6.38 µM (active)

C[C@@H]1CN([C@@H](C)CO)C(=O)c2cc(Br)cnc2O[C@H]1CN(C)Cc1ccc2c(c1)OCO2
IC50 [12]: > 20 µM (inactive)

Cc1cccnc1NC(=S)NC(=O)c1cccs1
EC50 [13]: 14.9 µM (active)
EC50 [14]: < 0.1 µM (active)
IC50 [15]: > 66 µM (inactive)
EC50 [16]: > 67.5 µM (inactive)
IC50 [17]: > 66 µM (inactive)
EC50 [18]: 0.19 µM (active)
EC50 [19]: > 67.5 µM (inactive)
EC50 [20]: 0.464 µM (active)
EC50 [21]: 0.161 µM (active)

CCCCCn1c(=O)[nH]c2cc(C(=O)NCCN3C(C)CCCC3C)ccc2c1=O (stereo not given)
AC50 [22]: 2.22 µM (active)

COc1ccc(-c2ccc([C@@H]3[C@@H]4CN(Cc5ccccn5)C[C@H]3N4)cc2)cc1
AC50 [23]: 28.7 µM (active)

Cc1ccc(N2CCN(C(CCc3ccccc3)C(=O)Nc3c(C)cccc3C)CC2)cc1 (stereo not given)
AC50 [24]: > 52 µM (inactive)

CCn1c(SCC(=O)NCc2ccc3c(c2)OCO3)nnc1-c1cccs1
IC50 [25]: > 100 µM (active)
IC50 [26]: > 64 µM (inactive)

COc1ccccc1N(Cc1ccccc1)S(=O)(=O)c1cccc(C(=O)Nc2cc(C)ccn2)c1
IC50 [27]: 38.5 µM (active)
AC50 [28]: 4.09 µM (active)
CC50 [29]: 21.8 µM (active)
AC50 [30]: 32.2 µM (active)
AC50 [31]: 3.95 µM (active)
AC50 [32]: 4.92 µM (active)

CCCNCC(O)COc1ccccc1C(=O)CCc1ccccc1 (stereo not given) [PROPAFENONE]
IC50 [8]: 4.92 µM (active)
IC50 [9]: > 33.3 µM (inactive)
IC50 [10]: > 10 µM (inactive)
IC50 [11]: > 10 µM (inactive)

COc1ccc(-c2c(C(C)=O)c(C)nc3sc4c(c23)NC(c2ccccc2)NC4=O)cc1 (stereo not given)
AC50 [22]: 2.66 µM (active)

COC(=O)C1CCCN1S(=O)(=O)c1ccc2ccccc2c1 (stereo not given)
AC50 [33]: 8.28 µM (active)
CC50 [34]: > 40 µM (active)

O=C(C1CCOCC1)N1C[C@H]2[C@@H](c3ccccc31)[C@@H](CO)N2Cc1ccccc1Cl
AC50 [24]: > 52 µM (inactive)

COc1ccc(CCNC(=O)C2CCN(S(=O)(=O)c3ccc(Cl)cc3)CC2)cc1OC
AC50 [30]: 35.3 µM (active)
AC50 [35]: 35.2 µM (active)

Sc1ncnc2c1cnn2Cc1ccccc1
EC50 [36]: 3.56 µM (active)
EC50 [37]: > 150 µM (inactive)
AC50 [23]: 11.2 µM (active)

CC/C(NCc1ccco1)=C1/C(=O)NC(=O)N(C2CCCCC2)C1=O
EC50 [38]: > 260 µM (inactive)
IC50 [39]: > 122 µM (inactive)
IC50 [40]: > 122 µM (inactive)

Clc1ccccc1/C=N/NC1=Nc2cccc3cccc1c23
EC50 [16]: > 67.6 µM (inactive)
EC50 [19]: > 67.6 µM (inactive)
EC50 [41]: 10.6 µM (not active)
EC50 [42]: > 89.3 µM (inactive)

CC(C)C(Nc1ncnc2c1oc1ccccc12)C(=O)O (stereo not given)
IC50 [1]: > 83.3 µM (inactive)
EC50 [43]: 10.8 µM (active)
EC50 [44]: 12.6 µM (active)
IC50 [3]: > 109 µM (inactive)
